Here are results for seven compounds from patent publication US20240247042A1, “GLUCAGON LIKE PEPTIDE COMPOUNDS” (Novartis AG, priority 2021, published 2024).

What is called Emax is the maximal effect, on the per cent scale that the assay sets. In general, EC50 refers to the concentration needed to bring the measured effect to its halfway point.

Common to all, as to type: cell-based
Experiment [1] concerns the target T1, human GLP1R (Homo sapiens, UniProt P43220). Briefly: Human GLP1R DERET recycling assay. Particulars: for Receptor recycled mean: maximum receptor recycled as proportion of amount internalized; for T1/2 mean: rate at which receptor recycled back to the membrane after Exendin 9-39.
Method: The extent to which agonists internalize or allow recycling of the human GLP1R was determined based on an optimized version of a RealTime FRET-based ‘DERET’ (Dissociation Enhanced Resonance Energy Transfer) assay. The technology relies on labeling of the SNAP-tagged GPCR with a SNAP-Lumi-Terbium (donor fluorophore, Cisbio, cat #SSNPTBD). The compounds are incubated with the cells over-expressing the GPCR of interest in the presence of an excess of fluorescein (acceptor fluorophore). When the GPCR is on the cell surface, the donor signal is quenched by the acceptor and the donor/acceptor ratio is low. As the GPCR internalizes, the donor signal is no longer quenched, and the acceptor is no longer excited so the donor/acceptor ratio increases. The addition of an excess of antagonist blocks further receptor internalization, allowing the receptor to recycle back to the membrane leading to a subsequent reduction in the donor/acceptor ratio. […] To generate triplicate dose response curves, compounds were serially diluted 3-fold in assay buffer, then added to the cell assay plate to a final volume of 40 μL and final top concentrations starting at 3 μM or less (depending on the case). […] EC0 wells with buffer only were also included. The plate FRET fluorescence was measured immediately using a Perkin Elmer Envision with LANCE/DELFIA D400 single mirror, excitation filter X320, and emission filters M615_203 (donor emission) and M515 (acceptor emission), and then measured every 30 min. […] Plates were kept at 37° C. between reads. Data was expressed as the ratio of donor/acceptor emissions using Microsoft Excel and plotted in GraphPad Prism.
Using this model, we determined a T1/2 rate at which the receptor recycled back to the membrane. We also determined a maximum percentage of receptor recycled as a proportion of the amount internalized initially.
The lower the internalization rate and the faster the receptor recycling rate the more the receptor is retained at the membrane.
The target of experiment [2] is T2, human GLP1R (hGLP1R) (Homo sapiens, UniProt P43220). In words: Human GLP1R cAMP agonist assay (GloSensor).
Target sequence in this assay (P43220 24-463): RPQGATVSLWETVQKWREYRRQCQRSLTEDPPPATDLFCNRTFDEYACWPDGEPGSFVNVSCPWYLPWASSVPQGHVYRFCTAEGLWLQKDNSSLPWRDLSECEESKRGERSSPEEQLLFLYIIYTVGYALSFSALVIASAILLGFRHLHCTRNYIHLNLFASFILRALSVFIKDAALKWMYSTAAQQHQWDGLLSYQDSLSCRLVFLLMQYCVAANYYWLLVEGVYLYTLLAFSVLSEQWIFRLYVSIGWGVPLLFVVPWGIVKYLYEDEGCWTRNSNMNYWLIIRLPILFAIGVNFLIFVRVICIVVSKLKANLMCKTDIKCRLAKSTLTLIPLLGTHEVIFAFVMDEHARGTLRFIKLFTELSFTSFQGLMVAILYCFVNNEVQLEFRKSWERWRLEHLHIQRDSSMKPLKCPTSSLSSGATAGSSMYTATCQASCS
Method: Compounds described herein were tested in the following cellular assays that measures the intracellular cAMP concentration. The cAMP is generated by the activation of GLP1R. EC50 is defined as the concentration of the compound that leads to half of the maximum response (after baseline correction).
The agonist activity of compounds was determined using the GloSensor™ cAMP Assay (Promega Corp.), which measures changes in the intracellular concentration of cAMP after ligand activation of GPCRs. The assay uses a biosensor encoded by pGloSensor™-22F cAMP plasmid (Promega, cat #E2301) with cAMP binding domains fused to a mutant form of Photinus pyralis luciferase. Binding to cAMP causes conformational changes that promote large increases in light output, which can be measured by a luminescence detector. […] The assay was started the following morning by adding an equal volume of CO2-independent media containing 4% v/v dilution of the GloSensor substrate (Promega, cat #E1291) to all wells. The cell plate was incubated at RT for 2 h in the dark. The Biomek i7 (Beckman Coulter) instrument was used for the liquid handling steps. To generate duplicate dose response curves, 3-fold serially diluted compounds were added in to the cell assay plate to a final volume of 60 μL with final concentrations ranging from 100 nM through 0.03 pM in CO2-independent media containing 0.1% BSA, 0.5 mM IBMX and 0.4% DMSO. […] Curve fitting for EC50 determinations was performed in the Helios module of the software package DAVID. The 4-parameter logistic model, Hill slope was used: y=Ainf+(A0−Ainf)/(1+(x/AC50)^Hill Slope), where y is the functional response; x is the compound concentration; A0 is the minimum value (at 0 dose); Ainf is the maximum value (at infinite dose); AC50 corresponds to the point of inflection (i.e., the point on the sigmoid shaped curve halfway between A0 and Ainf). The EC50 value was represented by the AC50 value calculated from Helios in μM. Emax is the maximal activity detected within the concentration range, derived from the fitted curve.
The HEK293-SNAP-hGLP1R stable cell clone that yielded the desired response was used for human GLP1R cAMP agonist assay.
Experiment [3] deals with T1, human GLP1R. In words: Human GLP1R DERET internalization assay.
The target of experiment [4] is T2, human GLP1R (hGLP1R). Briefly: Human GLP1R β-arrestin recruitment assay (PathHunter). Set-up: GeneArt (insert) 93-0164 (CHO-K1-EA parental cells); 93-0491 (pCMV PK vector bundle); host or cells: PathHunter CHO-K1-EA parental cells, single clone 1.
Target sequence in this assay (P43220 24-463): as above
Target sequence in this assay (P32121 whole entry partner): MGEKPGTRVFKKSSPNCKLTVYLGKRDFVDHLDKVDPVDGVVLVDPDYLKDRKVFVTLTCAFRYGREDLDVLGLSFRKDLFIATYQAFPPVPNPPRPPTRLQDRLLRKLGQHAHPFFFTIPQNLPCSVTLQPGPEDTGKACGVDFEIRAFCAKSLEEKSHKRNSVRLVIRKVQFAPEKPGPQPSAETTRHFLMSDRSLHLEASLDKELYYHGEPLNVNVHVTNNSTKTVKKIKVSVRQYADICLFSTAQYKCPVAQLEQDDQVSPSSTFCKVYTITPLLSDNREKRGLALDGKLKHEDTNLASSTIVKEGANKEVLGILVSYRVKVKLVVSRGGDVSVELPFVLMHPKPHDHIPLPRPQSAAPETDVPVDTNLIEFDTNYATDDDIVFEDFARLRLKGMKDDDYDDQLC
Method: The extent to which agonists recruited β-arrestin was measured using the PathHunter® β-arrestin assay (DiscoverX). This assay measures binding of β-arrestin to the receptor using an enzyme complementation approach. […] When β-arrestin is recruited to the receptor the enzyme becomes active and generates luminescence in the presence of a chemiluminescent substrate (PathHunter® Detection Kit, DiscoverX cat #93-0001). Luminescence can be measured on a relevant detector. […] The following day, agonists were prepared at 5 times the final required concentration. To generate triplicate dose response curves, compounds were serially diluted 3-fold in assay buffer (HBSS, 10 mM Hepes and 0.1% BSA), then added to the cell assay plate to a final volume of 25 μL and final top concentrations starting at 3 μM or less, depending on the compound. […] The plate was incubated at 37° C., 5% CO2 with humidity for 2 h after adding the compounds to the cells. […] The plate was incubated for an additional hour in the dark at RT. […] Curve fitting for EC50 determinations was performed using GraphPad Prism. The 4-parameter logistic model, Hill slope was used: Y=Bottom+(Top−Bottom)/(1+10^((Log EC50−X)*Hill Slope)), where Y is the functional response; X is the compound concentration; bottom is A0 or the minimum value (at 0 dose); top is Ainf or the maximum value (at infinite dose); EC50 is the point of inflection (i.e., the point on the sigmoid shaped curve halfway between A0 and Ainf). The EC50 value was calculated in μM.

T1 sequence (P43220 24-463): as the sequence (P43220 24-463) above

In turn, `CCCCCCCCCCCC(CCCCCCCCCCC(=O)O)(C(=O)O)C(=O)NCCOCCOCCOCCOCCOCCOCCOCCOCCOCCOCCOCCOCCOCCOCCOCCOCCOCCOCCOCCOCCOCCOCCOCCOCCC(=O)NCCCC[C@H](NC(=O)[C@H](C)NC(=O)[C@H](C)NC(=O)[C@H](CCC(N)=O)NC(=O)CNC(=O)[C@H](CCC(=O)O)NC(=O)[C@H](CC(C)C)NC(=O)[C@H](Cc1ccc(O)cc1)NC(=O)[C@H](CO)NC(=O)[C@H](CO)NC(=O)[C@@H](NC(=O)[C@H](CC(=O)O)NC(=O)[C@H](CO)NC(=O)[C@@H](NC(=O)[C@H](Cc1ccccc1)NC(=O)[C@@H](NC(=O)CNC(=O)[C@H](CCC(=O)O)NC(=O)C(C)(C)NC(=O)[C@@H](N)Cc1c[nH]cn1)[C@@H](C)O)[C@@H](C)O)C(C)C)C(=O)N[C@@H](CCC(=O)O)C(=O)N[C@@H](Cc1ccccc1)C(=O)N[C@H](C(=O)N[C@@H](C)C(=O)N[C@@H](Cc1c[nH]c2ccccc12)C(=O)N[C@@H](CC(C)C)C(=O)N[C@H](C(=O)N[C@@H](CCCNC(=N)N)C(=O)NCC(=O)N[C@@H](CCCNC(=N)N)C(=O)NCC(=O)O)C(C)C)[C@@H](C)CC` (stereo partly drawn) [Compound 1] came in with a Receptor recycled mean at human GLP1R [1] of 65%. At human GLP1R (hGLP1R) [2], this compound yielded an Emax of 105%.

At human GLP1R [1], `CCCCCCCCCCC[C@@](CCCCCCCCCCC(=O)O)(C(=O)O)C(=O)NCCOCCOCCOCCOCCOCCOCCOCCOCCOCCOCCOCCOCCOCCOCCOCCOCCOCCOCCOCCOCCOCCOCCOCCOCCC(=O)NCCCC[C@H](NC(=O)[C@H](C)NC(=O)[C@H](C)NC(=O)[C@H](CCC(N)=O)NC(=O)CNC(=O)[C@H](CCC(=O)O)NC(=O)[C@H](CC(C)C)NC(=O)[C@H](Cc1ccc(O)cc1)NC(=O)[C@H](CO)NC(=O)[C@H](CO)NC(=O)[C@@H](NC(=O)[C@H](CC(=O)O)NC(=O)[C@H](CO)NC(=O)[C@@H](NC(=O)[C@H](Cc1ccccc1)NC(=O)[C@@H](NC(=O)CNC(=O)[C@H](CCC(=O)O)NC(=O)C(C)(C)NC(=O)[C@@H](N)Cc1c[nH]cn1)[C@@H](C)O)[C@@H](C)O)C(C)C)C(=O)N[C@@H](CCC(=O)O)C(=O)N[C@@H](Cc1ccccc1)C(=O)N[C@H](C(=O)N[C@@H](C)C(=O)N[C@@H](Cc1c[nH]c2ccccc12)C(=O)N[C@@H](CC(C)C)C(=O)N[C@H](C(=O)N[C@@H](CCCNC(=N)N)C(=O)NCC(=O)N[C@@H](CCCNC(=N)N)C(=O)NCC(=O)O)C(C)C)[C@@H](C)CC` [Compound 2] returned a Receptor recycled mean of 68% and a T1/2 mean of 1.19 h. The Emax on human GLP1R (hGLP1R) [2] was determined as 115%.

On human GLP1R [1], `CCCCCCCCCCC[C@](CCCCCCCCCCC(=O)O)(C(=O)O)C(=O)NCCOCCOCCOCCOCCOCCOCCOCCOCCOCCOCCOCCOCCOCCOCCOCCOCCOCCOCCOCCOCCOCCOCCOCCOCCC(=O)NCCCC[C@H](NC(=O)[C@H](C)NC(=O)[C@H](C)NC(=O)[C@H](CCC(N)=O)NC(=O)CNC(=O)[C@H](CCC(=O)O)NC(=O)[C@H](CC(C)C)NC(=O)[C@H](Cc1ccc(O)cc1)NC(=O)[C@H](CO)NC(=O)[C@H](CO)NC(=O)[C@@H](NC(=O)[C@H](CC(=O)O)NC(=O)[C@H](CO)NC(=O)[C@@H](NC(=O)[C@H](Cc1ccccc1)NC(=O)[C@@H](NC(=O)CNC(=O)[C@H](CCC(=O)O)NC(=O)C(C)(C)NC(=O)[C@@H](N)Cc1c[nH]cn1)[C@@H](C)O)[C@@H](C)O)C(C)C)C(=O)N[C@@H](CCC(=O)O)C(=O)N[C@@H](Cc1ccccc1)C(=O)N[C@H](C(=O)N[C@@H](C)C(=O)N[C@@H](Cc1c[nH]c2ccccc12)C(=O)N[C@@H](CC(C)C)C(=O)N[C@H](C(=O)N[C@@H](CCCNC(=N)N)C(=O)NCC(=O)N[C@@H](CCCNC(=N)N)C(=O)NCC(=O)O)C(C)C)[C@@H](C)CC` [Compound 3] returned a Receptor recycled mean of 69% and a T1/2 mean of 1.24 h.

With `CCCCCCCCCCCC(CCCCCCCCCCC(=O)O)(C(=O)O)C(=O)NCCOCCOCCOCCOCCOCCOCCOCCOCCC(=O)NCCCC[C@H](NC(=O)[C@H](C)NC(=O)[C@H](C)NC(=O)[C@H](CCC(N)=O)NC(=O)CNC(=O)[C@H](CCC(=O)O)NC(=O)[C@H](CC(C)C)NC(=O)[C@H](Cc1ccc(O)cc1)NC(=O)[C@H](CO)NC(=O)[C@H](CO)NC(=O)[C@@H](NC(=O)[C@H](CC(=O)O)NC(=O)[C@H](CO)NC(=O)[C@@H](NC(=O)[C@H](Cc1ccccc1)NC(=O)[C@@H](NC(=O)CNC(=O)[C@H](CCC(=O)O)NC(=O)C(C)(C)NC(=O)[C@@H](N)Cc1c[nH]cn1)[C@@H](C)O)[C@@H](C)O)C(C)C)C(=O)N[C@@H](CCC(=O)O)C(=O)N[C@@H](Cc1ccccc1)C(=O)N[C@H](C(=O)N[C@@H](C)C(=O)N[C@@H](Cc1c[nH]c2ccccc12)C(=O)N[C@@H](CC(C)C)C(=O)N[C@H](C(=O)N[C@@H](CCCNC(=N)N)C(=O)NCC(=O)N[C@@H](CCCNC(=N)N)C(=O)NCC(=O)O)C(C)C)[C@@H](C)CC` (stereo partly drawn) [Compound 4], the maximum response (Emax) turned out to be 100% at human GLP1R [3], 119% on human GLP1R (hGLP1R) [2] and 84% at human GLP1R (hGLP1R) [4]. The compound further showed a Receptor recycled mean at human GLP1R [1] of 65%.

`CC[C@H](C)[C@H](NC(=O)[C@H](Cc1ccccc1)NC(=O)[C@H](CCC(=O)O)NC(=O)[C@H](CCCCNC(=O)CCOCCOCCOCCOCCOCCOCCOCCOCCOCCOCCOCCOCCOCCOCCOCCOCCOCCOCCOCCOCCOCCOCCOCCOCCNC(=O)C(CCCCCCCCCCCC(=O)O)(CCCCCCCCCCCC(=O)O)C(=O)O)NC(=O)[C@H](C)NC(=O)[C@H](C)NC(=O)[C@H](CCC(N)=O)NC(=O)CNC(=O)[C@H](CCC(=O)O)NC(=O)[C@H](CC(C)C)NC(=O)[C@H](Cc1ccc(O)cc1)NC(=O)[C@H](CO)NC(=O)[C@H](CO)NC(=O)[C@@H](NC(=O)[C@H](CC(=O)O)NC(=O)[C@H](CO)NC(=O)[C@@H](NC(=O)[C@H](Cc1ccccc1)NC(=O)[C@@H](NC(=O)CNC(=O)[C@H](CCC(=O)O)NC(=O)C(C)(C)NC(=O)[C@@H](N)Cc1c[nH]cn1)[C@@H](C)O)[C@@H](C)O)C(C)C)C(=O)N[C@@H](C)C(=O)N[C@@H](Cc1c[nH]c2ccccc12)C(=O)N[C@@H](CC(C)C)C(=O)N[C@H](C(=O)N[C@@H](CCCNC(=N)N)C(=O)NCC(=O)N[C@@H](CCCNC(=N)N)C(=O)NCC(=O)O)C(C)C` [Compound 7] registered an Emax on human GLP1R [3] of 77%. On human GLP1R [1], the Receptor recycled mean worked out at 71% and the T1/2 mean was 1.27 h. Besides, the Emax on human GLP1R (hGLP1R) [4] was 82%.

`CC[C@H](C)[C@H](NC(=O)[C@H](Cc1ccccc1)NC(=O)[C@H](CCC(=O)O)NC(=O)[C@H](CCCCNC(=O)CCOCCOCCOCCOCCOCCOCCOCCOCCOCCOCCOCCOCCOCCOCCOCCOCCOCCOCCOCCOCCOCCOCCOCCOCCNC(=O)C(CCCCCCCCCCCCCC(=O)O)(CCCCCCCCCCCCCC(=O)O)C(=O)O)NC(=O)[C@H](C)NC(=O)[C@H](C)NC(=O)[C@H](CCC(N)=O)NC(=O)CNC(=O)[C@H](CCC(=O)O)NC(=O)[C@H](CC(C)C)NC(=O)[C@H](Cc1ccc(O)cc1)NC(=O)[C@H](CO)NC(=O)[C@H](CO)NC(=O)[C@@H](NC(=O)[C@H](CC(=O)O)NC(=O)[C@H](CO)NC(=O)[C@@H](NC(=O)[C@H](Cc1ccccc1)NC(=O)[C@@H](NC(=O)CNC(=O)[C@H](CCC(=O)O)NC(=O)C(C)(C)NC(=O)[C@@H](N)Cc1c[nH]cn1)[C@@H](C)O)[C@@H](C)O)C(C)C)C(=O)N[C@@H](C)C(=O)N[C@@H](Cc1c[nH]c2ccccc12)C(=O)N[C@@H](CC(C)C)C(=O)N[C@H](C(=O)N[C@@H](CCCNC(=N)N)C(=O)NCC(=O)N[C@@H](CCCNC(=N)N)C(=O)NCC(=O)O)C(C)C` [Compound 8] displayed an Emax at human GLP1R (hGLP1R) [2] of 106%.

For `CC[C@H](C)[C@H](NC(=O)[C@H](Cc1ccccc1)NC(=O)[C@H](CCC(=O)O)NC(=O)[C@H](CCCCNC(=O)CCOCCOCCOCCOCCOCCOCCOCCOCCOCCOCCOCCOCCOCCOCCOCCOCCOCCOCCOCCOCCOCCOCCOCCOCCNC(=O)C(CCCCCCCCCCCCCCC(=O)O)(CCCCCCCCCCCCCCC(=O)O)C(=O)O)NC(=O)[C@H](C)NC(=O)[C@H](C)NC(=O)[C@H](CCC(N)=O)NC(=O)CNC(=O)[C@H](CCC(=O)O)NC(=O)[C@H](CC(C)C)NC(=O)[C@H](Cc1ccc(O)cc1)NC(=O)[C@H](CO)NC(=O)[C@H](CO)NC(=O)[C@@H](NC(=O)[C@H](CC(=O)O)NC(=O)[C@H](CO)NC(=O)[C@@H](NC(=O)[C@H](Cc1ccccc1)NC(=O)[C@@H](NC(=O)CNC(=O)[C@H](CCC(=O)O)NC(=O)C(C)(C)NC(=O)[C@@H](N)Cc1c[nH]cn1)[C@@H](C)O)[C@@H](C)O)C(C)C)C(=O)N[C@@H](C)C(=O)N[C@@H](Cc1c[nH]c2ccccc12)C(=O)N[C@@H](CC(C)C)C(=O)N[C@H](C(=O)N[C@@H](CCCNC(=N)N)C(=O)NCC(=O)N[C@@H](CCCNC(=N)N)C(=O)NCC(=O)O)C(C)C` [Compound 9], the Emax at human GLP1R [3] was 22%; on human GLP1R (hGLP1R) [2], 107%; at human GLP1R (hGLP1R) [4], 37%. The EC50 on human GLP1R [3] (receptor internalization, HEK293-SNAP-hGLP1R-GloSensor cells) was more than 1000 nM; at human GLP1R (hGLP1R) [4] (CHO-hGLP1R-β-arrestin cells), more than 2000 nM.
